Assays:
Assay type in all cases: in vivo
rice (Oryra sativa) = assay: Test B flooded paddy test; conditions: Oryza sativa, Flood, 250 g ai/ha; scale of 0 to 100 where 0 is no effect and 100 is complete control; read-out: Rice plant response rating
Summary of the method: (§1)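 2-leaf plants; pots flooded 3 cm over soil; cpd added to paddy water; depth held; greenhouse 13–15 d; visual rating vs controls, 0 = no effect, 100 = complete control.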

[1] = test system: ducksalad (Heteranthera limosa); assay: Test B flooded paddy test; conditions: Heteranthera limosa, Flood, 250 g ai/ha; scale of 0 to 100 where 0 is no effect and 100 is complete control; read-out: Ducksalad plant response rating
Summary of the method: as §1

[2] = test system: sedge, umbrella (small-flower umbrella sedge, Cyperus difformis); assay: Test B flooded paddy test; conditions: Cyperus difformis, Flood, 250 g ai/ha; scale of 0 to 100 where 0 is no effect and 100 is complete control; read-out: Sedge, Umbrella plant response rating
Summary of the method: as §1

[3] = test system: barnyardgrass (Echinochloa crus-galli); assay: Test B flooded paddy test; conditions: Echinochloa crus-galli, Flood, 250 g ai/ha; scale of 0 to 100 where 0 is no effect and 100 is complete control; read-out: Barnyardgrass plant response rating
Summary of the method: as §1

[4] = test system: pigweed (Amaranthus retroflexus); assay: Test A postemergence; conditions: Amaranthus retroflexus, post-emergence, 240 h, 125 g ai/ha, Postemergence; visual injury after approximately 10 d; 0 to 100 scale where 0 is no effect and 100 is complete control; read-out: Plant response rating, Pigweed
Summary of the method: (§2)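 Seeds sprayed preemergence with a directed soil spray, or plants at 2 to 10 cm height and one- to two-leaf stage sprayed postemergence, with test chemicals in a non-phytotoxic solvent mixture containing surfactant, in loam soil–sand blend. Injury rated visually against untreated controls after about 10 d in greenhouse, 0 (no effect) to 100 (complete control).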

[5] = test system: ryegrass, Italian (Italian ryegrass, Lolium multiflorum); assay: Test A postemergence; conditions: Lolium multiflorum, post-emergence, 240 h, 125 g ai/ha, Postemergence; visual injury after approximately 10 d; 0 to 100 scale where 0 is no effect and 100 is complete control; read-out: Plant response rating, Ryegrass, Italian
Summary of the method: as §2

[6] = test system: Galium (catchweed bedstraw, Galium aparine); assay: Test A postemergence; conditions: Galium, post-emergence, 240 h, 125 g ai/ha, Postemergence; visual injury after approximately 10 d; 0 to 100 scale where 0 is no effect and 100 is complete control; read-out: Plant response rating, Galium
Summary of the method: as §2

[7] = test system: ragweed (common ragweed, Ambrosia elatior); assay: Test A postemergence; conditions: Ambrosia artemisiifolia, post-emergence, 240 h, 125 g ai/ha, Postemergence; visual injury after approximately 10 d; 0 to 100 scale where 0 is no effect and 100 is complete control; read-out: Plant response rating, Ragweed
Summary of the method: as §2

[8] = test system: wheat (Triticum aestivum); assay: Test A postemergence; conditions: Triticum aestivum, post-emergence, 240 h, 125 g ai/ha, Postemergence; visual injury after approximately 10 d; 0 to 100 scale where 0 is no effect and 100 is complete control; read-out: Plant response rating, Wheat
Summary of the method: as §2

[9] = test system: barnyardgrass (Echinochloa crus-galli); assay: Test A postemergence; conditions: Echinochloa crus-galli, post-emergence, 240 h, 125 g ai/ha, Postemergence; visual injury after approximately 10 d; 0 to 100 scale where 0 is no effect and 100 is complete control; read-out: Plant response rating, Barnyardgrass
Summary of the method: as §2

Kochia (Kochia scoparia) = assay: Test A postemergence; conditions: Bassia scoparia, post-emergence, 240 h, 125 g ai/ha, Postemergence; visual injury after approximately 10 d; 0 to 100 scale where 0 is no effect and 100 is complete control; read-out: Plant response rating, Kochia
Summary of the method: as §2

[10] = test system: giant foxtail (Setaria faberii); assay: Test A postemergence; conditions: Setaria faberi, post-emergence, 240 h, 125 g ai/ha, Postemergence; visual injury after approximately 10 d; 0 to 100 scale where 0 is no effect and 100 is complete control; read-out: Plant response rating, Foxtail, Giant
Summary of the method: as §2

corn (Zea mays) = assay: Test A postemergence; conditions: Zea mays, post-emergence, 240 h, 125 g ai/ha, Postemergence; visual injury after approximately 10 d; 0 to 100 scale where 0 is no effect and 100 is complete control
Summary of the method: as §2

[11] = test system: blackgrass (Alopecurus myosuroides); assay: Test A postemergence; conditions: Alopecurus myosuroides, post-emergence, 240 h, 125 g ai/ha, Postemergence; visual injury after approximately 10 d; 0 to 100 scale where 0 is no effect and 100 is complete control; read-out: Plant response rating, Blackgrass
Summary of the method: as §2

[12] = test system: pigweed (Amaranthus retroflexus); assay: Test A preemergence; conditions: Amaranthus retroflexus, pre-emergence, 240 h, preemergence, read-out: Pigweed plant response rating

With `Cc1cc([C@H]2CN(C)C(=O)[C@@H]2C(=O)Nc2cccc(F)c2F)ccc1Cl` [Compound 929] the pest or weed control at 250 g/ha (rice (Oryra sativa)) was 0%, the pest or weed control at 250 g/ha [1] was 60% and the pest or weed control at 250 g/ha [2] was 0%. For the same compound, the pest or weed control at 250 g/ha [3] was 40%, the pest or weed control at 125 g/ha [4] was 20% and the pest or weed control at 125 g/ha [5] was 50%. For the same compound, the pest or weed control at 125 g/ha [6] was 50%, the pest or weed control at 125 g/ha [7] was 20% and the plant injury at 125 g/ha [8] was 30%. For the same compound, the pest or weed control at 125 g/ha [9] was 90%, the pest or weed control at 125 g/ha (Kochia (Kochia scoparia)) was 40% and the pest or weed control at 125 g/ha [10] was 90%. The Corn plant response rating (crop injury, 0 = no effect, 100 = complete kill) at 125 g/ha (corn (Zea mays)) was 40%, the pest or weed control at 125 g/ha [11] was 40% and the pest or weed control at 125 g/ha ([12]; 125 g ai/ha, 0 to 100 scale where 0 is no effect and 100 is complete control) was 20%. For the same compound, the pest or weed control at 500 g/ha ([12]; 500 g ai/ha, visual injury rating about 10 d after treatment, 0 to 100 scale (0 no effect, 100 complete control)) was 50%.

— US12077503B2, “Substituted cyclic amides and their use as herbicides” (FMC CORPORATION, priority 2015, dated 2024)
